Experiments:
DENV-2 NS2B-NS3 protease = DENV-2 NS2B-NS3 protease (Dengue virus type 2, UniProt P29990); test: Trans-cleavage FRET assay with DENV-2 NS2B-NS3 protease; type: cell-based; settings: for inhibition at 10 µM: read-out: Reduction of DENV-2 NS2B-NS3 protease activity
MTT cytotoxicity assay = type: cell-based, African green monkeys; settings: African green monkey, Vero E6 cells
DENV-2 strain 16681 [1] = test: In vitro infectivity assay (NS4B immunofluorescence/DAPI) in Vero E6 cells; type: cell-based; settings: for EC50: Dengue virus, DENV2, Vero C1008, 96 h, read-out: Inhibition of DENV-2 Infectivity (EC50, μM); for Selectivity Index (CC50/EC50): CC50 Vero E6 / EC50 infectivity
DENV-2 = test: Time-of-addition/removal assay with DENV-2; type: cell-based; settings: Dengue virus, DENV2; compound applied 2 h after infection, 18 h incubation; read-out: EC50 for viral infectivity, post-entry treatment
DENV-2 strain 16681 [2] = test: Virus yield assay (TCID50); type: cell-based; settings: Dengue virus, DENV2, 96 h post-treatment
[3] = trans-cleavage FRET assay, cells expressing CFP-trrg-YFP transfected with DENV-2 NS2B-NS3

Chain of DENV-2 NS2B-NS3 protease (P29990 1476-2093): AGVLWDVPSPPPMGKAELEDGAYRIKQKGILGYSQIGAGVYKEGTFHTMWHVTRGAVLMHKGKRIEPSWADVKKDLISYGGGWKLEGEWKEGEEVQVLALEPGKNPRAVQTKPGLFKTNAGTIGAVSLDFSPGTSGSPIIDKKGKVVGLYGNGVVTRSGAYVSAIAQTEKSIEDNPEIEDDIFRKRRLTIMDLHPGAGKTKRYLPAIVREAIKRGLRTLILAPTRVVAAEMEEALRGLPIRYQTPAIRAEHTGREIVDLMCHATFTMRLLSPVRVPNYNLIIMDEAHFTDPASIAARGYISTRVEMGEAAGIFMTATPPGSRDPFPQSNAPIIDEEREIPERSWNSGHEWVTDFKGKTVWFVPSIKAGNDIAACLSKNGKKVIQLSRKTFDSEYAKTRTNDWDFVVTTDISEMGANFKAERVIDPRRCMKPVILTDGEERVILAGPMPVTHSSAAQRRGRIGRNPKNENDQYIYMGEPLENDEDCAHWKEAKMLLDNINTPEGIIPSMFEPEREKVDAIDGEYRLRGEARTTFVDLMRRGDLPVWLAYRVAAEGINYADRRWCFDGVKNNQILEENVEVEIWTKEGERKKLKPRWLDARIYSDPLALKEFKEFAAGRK
Chain of DENV-2 NS2B-NS3 protease (P29990 1346-1475): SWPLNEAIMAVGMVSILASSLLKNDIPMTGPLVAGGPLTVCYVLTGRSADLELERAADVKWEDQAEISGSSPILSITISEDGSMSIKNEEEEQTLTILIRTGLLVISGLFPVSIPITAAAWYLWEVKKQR

Structure (SMILES)	inhibition at 10 µM (DENV-2 NS2B-NS3 protease)	CC50 at 96 h (MTT cytotoxicity assay)	EC50 (DENV-2 strain 16681 [1])	EC50 (DENV-2)	EC50 (DENV-2 strain 16681 [2])	other results
CC1(C)[C@@H](O[C@H]2O[C@H](C(=O)O)[C@@H](O)[C@H](O)[C@H]2O[C@@H]2O[C@H](C(=O)O)[C@@H](O)[C@H](O)[C@H]2O)CC[C@]2(C)[C@H]3C(=O)C=C4[C@@H]5C[C@@](C)(C(=O)O)CC[C@]5(C)CC[C@@]4(C)[C@]3(C)CC[C@@H]12 [Compound 1, Glycyrrhizic acid, reference compound]	–	–	–	–	–	NS2B-NS3 Protease (IC50, μM) (DENV-2 NS2B-NS3 protease; [3]): no inhibitory effect
CCOC(=O)C(Cc1ccccc1)NC(=O)C1OC(OC2C(OC3CCC4(C)C(CCC5(C)C4C(=O)C=C4C6CC(C)(C(=O)NC(Cc7ccccc7)C(=O)OCC)CCC6(C)CCC45C)C3(C)C)OC(C(=O)NC(Cc3ccccc3)C(=O)OCC)C(O)C2O)C(O)C(O)C1O (stereo not shown) [Compound 8]	> 20%	–	–	–	–	–
COC(=O)CCC(NC(=O)C1OC(OC2C(OC3CCC4(C)C(CCC5(C)C4C(=O)C=C4C6CC(C)(C(=O)O)CCC6(C)CCC45C)C3(C)C)OC(C(=O)NC(CCC(=O)OC)C(=O)OC)C(O)C2O)C(O)C(O)C1O)C(=O)OC (stereo not shown) [Compound 11]	> 20%	> 100 µM	0.034 ± 0.001 µM	0.005 µM	0.042 µM	–
COC(=O)C(CCC(=O)O)NC(=O)C1OC(OC2C(OC3CCC4(C)C(CCC5(C)C4C(=O)C=C4C6CC(C)(C(=O)O)CCC6(C)CCC45C)C3(C)C)OC(C(=O)NC(CCC(=O)O)C(=O)OC)C(O)C2O)C(O)C(O)C1O (stereo not shown) [Compound 12]	> 20%	–	–	–	–	–
CCOC(=O)C(CC(C)C)NC(=O)C1OC(OC2C(OC3CCC4(C)C(CCC5(C)C4C(=O)C=C4C6CC(C)(C(=O)O)CCC6(C)CCC45C)C3(C)C)OC(C(=O)NC(CC(C)C)C(=O)OCC)C(O)C2O)C(O)C(O)C1O (stereo not shown) [Compound 16]	> 20%	–	–	–	–	IC50 (DENV-2 NS2B-NS3 protease; [3]): > 10 µM
CCOC(=O)CCNC(=O)C1OC(OC2C(OC3CCC4(C)C(CCC5(C)C4C(=O)C=C4C6CC(C)(C(=O)O)CCC6(C)CCC45C)C3(C)C)OC(C(=O)NCCC(=O)OCC)C(O)C2O)C(O)C(O)C1O (stereo not shown) [Compound 17]	> 20%	> 100 µM	4.34 ± 0.008 µM	2.99 µM	0.79 µM	Selectivity Index (CC50/EC50) (DENV-2 strain 16681 [1]): >23
COC(=O)CCCCCCNC(=O)C1OC(OC2C(OC3CCC4(C)C(CCC5(C)C4C(=O)C=C4C6CC(C)(C(=O)O)CCC6(C)CCC45C)C3(C)C)OC(C(=O)NCCCCCCC(=O)OC)C(O)C2O)C(O)C(O)C1O (stereo not shown) [Compound 19]	> 20%	> 100 µM	2.34 ± 0.08 µM	1.91 µM	0.43 µM	Selectivity Index (CC50/EC50) (DENV-2 strain 16681 [1]): >42
COC(=O)CCCCCCCCCCNC(=O)C1OC(OC2C(OC3CCC4(C)C(CCC5(C)C4C(=O)C=C4C6CC(C)(C(=O)O)CCC6(C)CCC45C)C3(C)C)OC(C(=O)NCCCCCCCCCCC(=O)OC)C(O)C2O)C(O)C(O)C1O (stereo not shown) [Compound 20]	> 20%	–	–	–	–	IC50 (DENV-2 NS2B-NS3 protease; [3]): > 10 µM
CN(C)[C@@H]1C(O)=C(C(N)=O)C(=O)[C@@]2(O)C(O)=C3C(=O)c4c(O)cccc4[C@@](C)(O)[C@H]3C[C@@H]12 [T, tetracycline, reference compound]	> 20%	–	–	–	–	–
